Assay results taken from ChEMBL document CHEMBL2424512, “Discovery and biophysical characterization of 2-amino-oxadiazoles as novel antagonists of PqsR, an important regulator of Pseudomonas aeruginosa virulence” (J Med Chem, 2013).
Activity calls are given as the source filed them. The calls are words filed in the database; no cut-off is given here.

Assays:
[1] = target: T1, Transcriptional regulator MvfR (Pseudomonas aeruginosa PA14, UniProt A0A072ZLE6); assay: Antagonist activity at Pseudomonas aeruginosa PA14 PqsR expressed in Eschericia coli DH5-alpha assessed as inhibition of PQS-induced protein activation by beta-galactosidase reporter gene assay
T1 sequence (A0A072ZLE6 whole entry): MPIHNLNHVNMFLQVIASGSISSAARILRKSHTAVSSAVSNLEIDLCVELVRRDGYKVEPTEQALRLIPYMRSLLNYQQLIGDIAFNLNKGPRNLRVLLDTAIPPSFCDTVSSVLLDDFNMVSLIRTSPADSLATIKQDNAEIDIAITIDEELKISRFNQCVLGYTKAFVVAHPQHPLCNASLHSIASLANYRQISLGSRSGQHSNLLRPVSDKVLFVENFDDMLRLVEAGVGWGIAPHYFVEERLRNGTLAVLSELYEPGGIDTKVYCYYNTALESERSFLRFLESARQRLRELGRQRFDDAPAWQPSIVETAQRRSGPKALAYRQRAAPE

[2] = target: T1, Transcriptional regulator MvfR; assay: Binding affinity to Pseudomonas aeruginosa PA14 biotinylated His6SUMO-tagged PqsR expressed in Eschericia coli BL21 (DE3) by surface plasmon resonance spectroscopic analysis
[3] = target: T1, Transcriptional regulator MvfR; assay: Binding affinity to Pseudomonas aeruginosa PA14 biotinylated His6SUMO-tagged PqsR expressed in Eschericia coli BL21 (lamda DE3) by isothermal titration calorimetry
[4] = target: T2, Transcriptional regulator MvfR (Pseudomonas aeruginosa PA14) (UniProt A0A072ZLE6); assay: Antagonist activity at Pseudomonas aeruginosa PA14 PqsR assessed as reduction of pyocyanin level by UHPLC-MS/MS analysis
T2 sequence (whole entry): T1 sequence (A0A072ZLE6 whole entry)

[5] = target: T1, Transcriptional regulator MvfR; assay: Antagonist activity at Pseudomonas aeruginosa PA14 PqsR expressed in pqs gene-deficient Pseudomonas aeruginosa PA14 by beta-galactosidase reporter gene assay
Pseudomonas aeruginosa = assay: Antibacterial activity against Pseudomonas aeruginosa PA14 at 250 uM after 1 to 8 hrs by spectrophotometer analysis; assay type: functional, organism-based

Row | SMILES | EC50 [1] | Kd [2] | Kd [3] | other results
1 | Nc1nnc(-c2cccc(OC(F)(F)F)c2)o1 | 46.5 µM |  |  | 
2 | Nc1nnc(-c2ccc(Cl)cc2)s1 |  | 4.5 µM | 3.7 µM | 
3 | FC(F)(F)c1cc(-c2cccs2)n[nH]1 |  | 10.7 µM | 8.5 µM | 
4 | NC(=O)c1ccc2ccccc2c1 |  | 0.8 µM | 1.8 µM | 
5 | Cc1nnc(-c2cccc(C(F)(F)F)c2)o1 |  |  | 12.9 µM | 
6 | Cc1cccc(-c2nnc(N)o2)c1 | 57.8 µM |  | 12.4 µM | 
7 | CC(C)(C)c1ccc(C(=O)NO)cc1 |  |  |  | inhibition [4]: Active
8 | Nc1nnc(-c2ccc(Cl)cc2)o1 |  | 200 µM |  | 
9 | Nc1nnc(-c2cccc(Cl)c2)o1 | 26.7 µM |  |  | 
10 | COc1cccc(-c2nnc(N)o2)c1 |  |  |  | inhibition [4]: inactive
11 | FC(F)(F)c1cccc(-c2nnco2)c1 | 101 µM |  | 6.5 µM | 
12 | Nc1nnc(-c2cccc(Br)c2)o1 | 7.5 µM |  |  | 
13 | Nc1nnc(-c2cccc(C(F)(F)F)c2)o1 | 7.5 µM |  | 1.3 µM | EC50 [5]: 38.5 µM; Activity (Pseudomonas aeruginosa): inactive
14 | N#Cc1cccc(-c2nnc(N)o2)c1 | 17.8 µM |  |  | 
15 | CCCCCCCc1[nH]c2ccccc2c(=O)c1O |  | 0.21 µM |  | 
16 | CCCCCCCc1cc(=O)c2cc(C(F)(F)F)ccc2[nH]1 |  |  |  | inhibition [4]: Active
17 | CC(C)(C)c1cccc(-c2nnc(N)o2)c1 |  |  | 3.1 µM | 
18 | NC(=O)c1cccc(Br)c1 |  | 6.8 µM | 7.6 µM | 
19 | Nc1cccc(Br)n1 |  | 6.8 µM | 10 µM | 
20 | CC(C)(C)c1ccc(C(N)=O)cc1 |  |  | 0.9 µM | 
